From US20220220106A1, “QUINOLINE COMPOUNDS AND PHARMACEUTICAL COMPOSITIONS AND USES THEREOF” (Academy of Military Medical Sciences, priority 2019, published 2022)

Columns and labels:
[1] = target: T1, mTORC1 (Homo sapiens, UniProt P42345); assay: Western blot, phosphorylation of Thr389 of p70S6K1 in RD cells (mTORC1 inhibition); type: cell-based; settings: 20 μM, 2 hours, Western blot (FIG. 1)
T1 construct: endogenous in cells; host or cells: RD cells
Protocol: In order to test the inhibitory activity of the synthesized compounds on the two mTOR complexes, the inhibitory activity experiments of mTORC1 and mTORC2 were carried out. Since mTORC1 and mTORC2 exerted their function by activating the phosphorylation of downstream substrates, the inhibitory activity of the compounds on mTORC1 and mTORC2 could be determined by detecting the phosphorylation levels of the Thr389 site of mTORC1 downstream substrate p70S6K1 and the Ser473 site of mTORC2 downstream substrate Akt.
Pretreatment of Compound:
(1) RD cells were cultured in DMEM medium containing 10% FBS and 1×PS (penicillin and streptomycin were at concentrations 100 IU and 100 μg/mL, respectively) at 37° C. and 5% CO2.
(2) The RD cells (5×10^5 cells/2 mL medium) were inoculated into a 6-well plate and incubated at 37° C. and 5% CO2 for 24 hours.
(3) The cells were washed once with PBS, and the cells were cultured in serum-free medium without nutrients overnight.
(4) Formulation of compounds: […]
Preparation of insulin medium: Insulin was diluted in DMEM medium containing 10% FBS and 1×PS so that the final concentration of insulin was 167 nM.
Pretreatment of compound to be tested: The compound was dissolved in DMSO so that the concentration of the test compound was 20 mM, and the compound was diluted in 167 nM insulin medium to reach a concentration of 20 μM.
Preparation of rapamycin solution: Rapamycin was dissolved in DMSO to a concentration of 10 mM, and the rapamycin was diluted in 167 nM insulin medium to reach a concentration of 20 μM.
(5) The serum-free medium in each well was removed.
(6) 2 mL of complete medium containing DMSO was added to each well as a control carrier. The final concentration of DMSO was 0.2%.
(7) 2 mL of 20 μM rapamycin solution and 20 μM the compound to be tested were added to the designated wells, respectively. The final concentration of DMSO was 0.2%.
(8) The cells were incubated for 2 hours at 37° C. and 5% CO2.
Protein extraction and concentration determination:
(1) The cells were washed once with refrigerated PBS, and then the PBS was discarded.
(2) 150 μL of cell extraction buffer (RIPA, […], catalog number: C1053) was transferred into each well to lyse the cells, and then the resulting cell solution were incubated on ice for 30 minutes.
(3) Centrifugation was performed at 14000 rpm (13000× g) for 30 minutes at 4° C.
(4) The supernatant was transferred into a new eppendorf tube, and the cell lysate was stored at −80° C. before testing.
(5) The protein concentration was determined by BCA method.
Preparation of Buffer Solutions:
(1) 100× Protease inhibitor (Beyotime, catalog number: P1005): 1 mL of redistilled water was added to the protease inhibitor and stirred gently until the solid was completely dissolved.
(2) Lysis Buffer: […] of 100× protease inhibitor and 2× phosphatase inhibitor Cocktails PhosSTOP (Beyotime, catalog number: P1082) were added to 100 mL of the cell extract, and stirred gently until it was completely dissolved.
(3) Electrophoresis Running Buffer:
10×MOPS buffer: 52.33 g of MOPS, 30.29 g of Tris base, 10 mL of 0.5 mol/L EDTA (pH 8.5) and 5 g of SDS was dissolved in 400 mL of redistilled water, stirred to dissolve, and the pH was adjusted to 7.5, then redistilled water was added again to reach a volume of 500 mL; 1×MOPS: 100 mL of 10×MOPS was diluted with redistilled water to 1000 mL.
(4) 1× Transfer Buffer: […] of 10× transfer buffer (144 g of glucine, 30.3 g of trisbase, and distilled water were mixed to reach a volume of 1 L) and 400 mL of methanol were dissolved in 1500 mL of redistilled water, and then the redistilled water was added to reach a volume of 2000 mL. […]

[2] = Water solubility in saturated aqueous solution (HPLC, one-point method); type: physicochemical; settings: for Water solubility: deionized water, 25° C.
Protocol: By measuring the solubility of compound in a saturated aqueous solution, the water solubility of the compound was further investigated.
Preparation of Supersaturated Solution:
(1) About 1 mg of the compound to be tested was weighed and added to a 25 mL tube;
(2) 5 mL of deionized water was added, shaken well, placed in a vortex shaker and mixed for 30 seconds, then treated ultrasonically for 30 seconds;
(3) The tube was placed in a constant temperature water bath, and allowed to stand in a constant temperature water bath at 25° C. for 1 hour;
(4) The operation of (2) was repeated, and the standing at constant temperature of 25° C. was continued for 1 hour;
(5) The prepared supersaturated solution supernatant was taken out and placed in a centrifuge tube, centrifuged at 15000 rpm for 5 minutes, and the upper centrifugate was taken out for later use.
Liquid Chromatography Method:
(1) Chromatographic column: Agilent XDB Eclipse C18, 25 cm×4.6 mm×5 μm liquid chromatography column.
(2) Mobile phase: Phase A: water (0.1% trifluoroacetic acid); Phase B: acetonitrile.
(3) Flow rate: 1.0 mL/min.
(4) Sampling volume: 10 μl.
Preparation of standard solution: 1.0 mg of the sample to be tested was accurately weighed, added to a 10 mL volumetric flask, dissolved in methanol as solvent, metered to a constant volume of 10 mL, the concentration of solution was calculated, and it was used as a standard solution for later use.
By using the one-point method, the chromatographic peak area of the standard solution of the sample to be tested was determined, and then the peak area of the supersaturated compound was determined, and the solubility of the compound to be tested in water was calculated accordingly.

SMILES	p70 phosphorylation expression level [1]	Water solubility [2]	water solubility, in words [2]
CCC(=O)Nc1ccc(-c2ccc3ncc4ccc(=O)n(-c5cccc(C(F)(F)F)c5)c4c3c2)cn1 [HTL-6-45, 9-[3-(6-propionylamino)pyridyl]-2-oxo-1-[3-(trifluoromethyl)phenyl]-1,2-dihydrobenzo[h][1,6]naphthyridine]	significantly down-regulate	0.39 µg/mL	
O=c1ccc2cnc3ccc(-c4ccc(F)nc4)cc3c2n1-c1cccc(C(F)(F)F)c1 [HTL-7-01, 9-[3-(6-fluoro)pyridyl]-2-oxo-1-[3-(trifluoromethyl)phenyl]-1,2-dihydrobenzo[h][1,6]naphthyridine]	significantly down-regulate	0.42 µg/mL	
CN1CCN(c2ccc(-c3ccc4ncc5ccc(=O)n(-c6cccc(C(F)(F)F)c6)c5c4c3)cn2)CC1 [HTL-7-17, 9-{3-[6-(4-methylpiperazin-1-yl)pyridyl]}-2-oxo-1-[3-(trifluoromethyl)phenyl]-1,2-dihydrobenzo[h][1,6]naphthyridine]	significantly down-regulate	18.64 µg/mL	relatively high water solubility
COc1ccc(-c2ccc3ncc4ccc(=O)n(-c5cccc(C(F)(F)F)c5)c4c3c2)cn1 [HTL-7-03, 9-[3-(6-methoxy)pyridyl]-2-oxo-1-[3-(trifluoromethyl)phenyl]-1,2-dihydrobenzo[h][1,6]naphthyridine]	significantly down-regulate	0.61 µg/mL	
O=c1ccc2cnc3ccc(-c4cccnc4F)cc3c2n1-c1cccc(C(F)(F)F)c1 [HTL-6-48, 9-[3-(2-fluoro)pyridyl]-2-oxo-1-[3-(trifluoromethyl)phenyl]-1,2-dihydrobenzo [h][1,6]naphthyridine]	significantly down-regulate	5.88 µg/mL	relatively high water solubility
